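Dose response: 5 concentrations. Exposure: 48 h. Format: 96-well plates. Endpoint: linear interpolation; highest concentration if not reached. The concentration for 50% growth inhibition is given as GI50.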 Active and inactive are the calls of the source. Rule as the data show it: active = GI50 up to about 1.1 µM and inactive = higher.
How the values were obtained:
Assay in all cases: NCI-60 cell line screen, 48 h
XF498 = tested on: XF498
HOP-18 = tested on: HOP-18
MCF7 = tested on: MCF7
SNB-78 = tested on: SNB-78
LXFL 529 = tested on: LXFL 529
DU-145 = tested on: DU-145
PC-3 = tested on: PC-3
786-0 = tested on: 786-0
RXF 631 = tested on: RXF 631

Measured: GI50

N/C(=N\O)N/N=C/c1ncccc1O
inactive: XF498 12.4 µM | HOP-18 22.8 µM | MCF7 2.07 µM | SNB-78 > 88.5 µM

CC12CCC(=O)N1c1cnccc1N2 (stereo unspecified)
inactive: LXFL 529 > 100 µM | SNB-78 > 100 µM

CCOc1ncn(-c2ccc(NC(=S)Nc3cccc(O)c3)cc2)n1
inactive: DU-145 > 100 µM | MCF7 > 100 µM | PC-3 > 100 µM

CC1(C)OC[C@H](C(=N)OCc2ccccc2)O1
inactive: XF498 > 100 µM | LXFL 529 > 100 µM | SNB-78 > 100 µM

COc1cc(OC)cc(Oc2nc3cc(F)c(F)cc3nc2-c2ccccc2)c1
inactive: DU-145 > 100 µM | MCF7 > 100 µM | 786-0 > 100 µM | PC-3 > 100 µM

CCCCC(CC)C(=O)Oc1ccc(C(=O)c2ccccc2)c(O)c1 (stereo unspecified)
inactive: DU-145 57 µM | MCF7 60.4 µM | PC-3 51.5 µM

N#Cc1c(Cl)cc(Cl)n2c1nc1ccccc12
inactive: DU-145 14.3 µM | MCF7 4.66 µM | 786-0 2.86 µM | PC-3 14.3 µM

O=c1oc2ccccc2n1P(=O)(Oc1ccc(Cl)cc1)n1c(=O)oc2ccccc21
inactive: HOP-18 > 100 µM | SNB-78 > 100 µM

CCCCCCCCCCCCCCCc1nnc(S)[nH]1
inactive: XF498 > 100 µM | LXFL 529 30.5 µM | SNB-78 > 100 µM

COc1ccc2nc3c(C)cc4ccccc4n3c2c1
inactive: DU-145 > 100 µM | MCF7 51.5 µM | 786-0 48 µM | PC-3 46.3 µM

CN1C(=O)C(C#N)C2C[C@@]1(C)Oc1ccccc12 (stereo partly specified)
inactive: DU-145 > 100 µM | MCF7 > 100 µM | 786-0 > 100 µM | PC-3 > 100 µM

C=C1CC[C@@H](Br)C(C)(C)[C@]12CCC(C)(O)C(Cl)C2 (stereo partly specified)
inactive: RXF 631 18.5 µM | HOP-18 18.8 µM | SNB-78 52.5 µM

CC(=O)/N=C1\N/C(=C/c2cc([N+](=O)[O-])ccc2O)CN1C
inactive: DU-145 > 100 µM | MCF7 > 100 µM | 786-0 > 100 µM | PC-3 > 100 µM

CCOC(=O)/C=C1/C(CCCOCc2ccccc2)C2CCCC23CC2(CCN13)OCCO2 (stereo unspecified)
inactive: XF498 12.3 µM | RXF 631 30.1 µM | LXFL 529 22.2 µM | HOP-18 21.3 µM | SNB-78 25.9 µM

CC1=C(SCCO)C(=O)c2ccccc2C1=O
inactive: DU-145 16 µM | MCF7 3.02 µM | PC-3 11.4 µM
